Reference: US20060241082A1, “Modulating vesicular monoamine transporter trafficking and function: a novel approach for the treatment of parkinson's disease” (priority 2002, published 2006)
Values joined by “and” are separate entries in the source; they are usually repeats but may differ in a detail not shown here. Equal values may be shown once.

Tests used:
[1] = molecular target: T1, VMAT-2 (Rattus norvegicus, UniProt Q01827); type: in vivo; set-up: purified striatal vesicles prepared from treated rats; from tissue; host or cells: striatum of male Sprague-Dawley rats (synaptic vesicles; P2, P3, S3 fractions); settings: rats, MDMA 4 x 10 mg/kg s.c.
Procedure: Osmolarity was restored by addition of N-(2-hydroxyethyl)-piperazine-N′-2-ethanesulfonic acid (HEPES) and potassium tartrate 25 mM and 100 mM (final concentrations; pH 7.5 at 4° C.), respectively.

[2] = molecular target: T1, VMAT-2; assay: [3H]DHTBZ binding in purified striatal vesicles prepared from treated rats; settings: rats, MDMA 4 x 10 mg/kg s.c., both 1 and 24 h after treatment
Procedure: Synaptic vesicles were obtained from synaptosomes prepared from rat striatum as described above. Synaptosomes were resuspended and homogenized in cold distilled deionized water. Osmolarity was restored by addition of HEPES and potassium tartrate 245 and 100 mM (final concentrations; pH 7.5), respectively. Samples were centrifuged for 20 min at 20,000×g (4° C.) to remove lysed synaptosomal membranes. MgSO4 (1 mM, final concentration) was added to the supernatant, which was then centrifuged for 45 min at 100,000×g (4° C.). The resulting vesicular pellet was resuspended in wash buffer at a concentration of 50 mg/ml (original tissue weight). […] Binding of [^3H]DHTBZ was performed as described by Teng et al. (1998). Briefly, 200 μl of the synaptic vesicle preparation (˜6 μg of protein) was incubated in wash buffer in the presence of [^3H]DHTBZ (2 nM final concentration) for 10 min at 25° C. The reaction was terminated by addition of 1 ml of cold wash buffer and rapid filtration through Whatman GF/F filters soaked in 0.5% polyethylenimine. Filters were washed three times with ice-cold wash buffer. Nonspecific binding was determined by coincubation with 20 μM tetrabenazine. All protein concentrations were determined by a BioRad protein assay (Bio-Rad, Richmond, Calif.).
Binding of [^3H]DHTBZ was performed as described by Teng et al. (1998). Briefly, 200 μl (˜6 μg protein) of the synaptic vesicle preparation was incubated in wash buffer in the presence of [^3H]DHTBZ (2 nM final concentration except in kinetic analyses wherein 0.25-500 nM DHTBZ was employed) for 10 m in at 25° C. The reaction was terminated by addition of 1 ml cold wash buffer and rapid filtration through Whatman GF/F filters soaked in 0.5% polyethylenimine. Filters were washed three times with ice-cold wash buffer. Radioactivity trapped in filters was counted using a liquid scintillation counter. Nonspecific binding was determined by coincubation with 20 μM TBZ. All protein concentrations were determined by a Bio-Rad protein assay (Bio-Rad Inc.).
Binding of[^3H]DHTBZ was performed as described by Teng et al. (1998). Briefly, 200 μl (˜5 μg protein) of the synaptic vesicle preparation was incubated in wash buffer in the presence of [^3H]DHTBZ (2 nM final concentration except in kinetic analyses wherein 0.25-500 nM DHTBZ was employed) for 10 m in at 25° C. The reaction was terminated by addition of 1 ml cold wash buffer and rapid filtration through Whatman GF/F filters soaked in 0.5% polyethylenimine. Filters were washed three times with ice-cold wash buffer. Radioactivity trapped in filters was counted using a liquid scintillation counter. Nonspecific binding was determined by coincubation with 20 μM TBZ. All protein concentrations were determined by a Bio-Rad protein assay (Bio-Rad Inc.).

[3] = molecular target: VMAT-2 (Mus musculus, UniProt Q8BRU6); assay: Vesicular [3H]dopamine uptake in striatal vesicles prepared from treated mice; type: in vivo; settings: MDMA 4 x 10 mg/kg s.c.
Procedure: (A. E. Fleckenstein, et al., J. Pharmacol Exp Ther. (1997) 282:834-838). Briefly, fresh tissue was homogenized in ice-cold 0.32 M sucrose. The homogenate was centrifuged (800×g for 12 min; 4° C.), and the supernatant (S1) was carefully removed and centrifuged (22,000×g for 15 min; 4° C.) to obtain the synaptosomal-containing pellet (P2). The resulting P2 were resuspended and homogenized in ice-cold distilled deionized water. Osmolarity was restore by addition 25 mM HEPES and 100 mM potassium tartrate (final concentration; pH 7.5 at 4° C. respectively). […] The resultant S3 removed and MgSO4 added (final concentration of [1 mM] pH 7.5 at 4° C.) and centrifuged at 100,000×g for 45 min. The final P4 were resuspended at 50 mg/ml (original tissue wet weight).

[4] = molecular target: T2, DAT (Rattus norvegicus, UniProt P23977); assay: [3H]WIN35428 binding in striatal synaptosomes prepared from treated rats; type: in vivo; settings: MDMA 4 x 10 mg/kg s.c.
T2 construct: from tissue; host or cells: striatum of male Sprague-Dawley rats (synaptosomes, P2)
Procedure: (§1) Uptake of [^3H]DA was determined in striatal synaptosomes prepared according to the method described by Kokoshka et al. (1998). Briefly, fresh striatal tissue was homogenized in cold 0.32 M sucrose and centrifuged (800×g for 12 min; 4° C.). The supernatant (S1) was then centrifuged (22,000×g for 15 min; 4° C.), and the resulting pellet (P2) was resuspended in ice-cold modified Kreb's buffer (in mM: 126 NaCl, 4.8 KCl, 1.3 CaCl2, 16 sodium phosphate, 1.4 MgSO4, 11 dextrose, 1-ascorbic acid, pH 7.4). Assays were conducted in Kreb's buffer. Each assay tube contained synaptosomal tissue (i.e., resuspended P2 obtained from 1.5 mg of original wet weight striatal tissue) and 1 μM pargyline. Nonspecific values were determined in the presence of 100 μM cocaine. After preincubation of assay tubes for 10 min at 37° C., assays were initiated by the addition of [^3H]DA (0.5 nM final concentration). Samples were incubated at 37° C. for 3 min. Samples were then filtered through Whatman GF/B filters (Brandel, Gaithersburg, Md.) soaked previously in 0.05% polyethylenimine. Filters were washed rapidly 3 times with 3 ml of ice-cold 0.32 M sucrose using a Brandel filtering manifold. […] Remaining resuspended P2 samples were assayed for protein concentrations according to the method of Lowry et al. (1951). In MDMA preincubation experiments, samples were preincubated with 10 μM MDMA for 30 min at 37° C. After 30 min, resuspended P2 fractions were “washed” by centrifugation (22,000×g for 15 min; 4° C.). The resulting pellet (P3) was then resuspeded in ice-cold Kreb's buffer, and once again centrifuged (22,000×g for 15 min; 4° C.) to obtain a P4 pellet that was subsequently resuspended and assayed. [^3H]WIN35428 binding (0.5 nM final concentration) was conducted in phosphate-buffered 0.32 M sucrose, pH 7.4, with synaptosomes obtained from 2 mg (original wet weight) of striatal tissue per reaction tube, and samples were incubated on ice for 2 hr. Samples were then filtered through Whatman GF/B filters (Brandel, Gaithersburg, Md.) soaked previously in 0.05% polyethylenimine. Filters were washed rapidly 3 times with 3 ml of ice-cold 0.32 M sucrose using a Brandel filtering manifold. […] Remaining resuspended P2 samples were assayed for protein concentrations according to the method of Lowry et al. (1951).

[5] = molecular target: T3, plasmalemmal DA transporter (DAT) (Rattus norvegicus, UniProt P23977); assay: Plasmalemmal [3H]DA uptake in striatal synaptosomes prepared from treated rats; type: in vivo; settings: MDMA 4 x 10 mg/kg s.c.
T3 construct: from tissue; host or cells: striatum of male Sprague-Dawley rats (synaptosomes, P2)
Procedure: Uptake of [^3H]DA was determined in striatal synaptosomes prepared according to the method described by Kokoshka et al. (1998). Briefly, fresh striatal tissue was homogenized in cold 0.32 M sucrose and centrifuged (800×g for 12 min; 4° C.). The supernatant (S1) was then centrifuged (22,000×g for 15 min; 4° C.), and the resulting pellet (P2) was resuspended in ice-cold modified Kreb's buffer (in mM: 126 NaCl, 4.8 KCl, 1.3 CaCl2, 16 sodium phosphate, 1.4 MgSO4, 11 dextrose, 1-ascorbic acid, pH 7.4). Assays were conducted in Kreb's buffer. Each assay tube contained synaptosomal tissue (i.e., resuspended P2 obtained from 1.5 mg of original wet weight striatal tissue) and 1 μM pargyline. Nonspecific values were determined in the presence of 100 μM cocaine. After preincubation of assay tubes for 10 min at 37° C., assays were initiated by the addition of [^3H]DA (0.5 nM final concentration). Samples were incubated at 37° C. for 3 min. Samples were then filtered through Whatman GF/B filters (Brandel, Gaithersburg, Md.) soaked previously in 0.05% polyethylenimine. Filters were washed rapidly 3 times with 3 ml of ice-cold 0.32 M sucrose using a Brandel filtering manifold. […] Remaining resuspended P2 samples were assayed for protein concentrations according to the method of Lowry et al. (1951). In MDMA preincubation experiments, samples were preincubated with 10 μM MDMA for 30 min at 37° C. After 30 min, resuspended P2 fractions were “washed” by centrifugation (22,000×g for 15 min; 4° C.). The resulting pellet (P3) was then resuspeded in ice-cold Kreb's buffer, and once again centrifuged (22,000×g for 15 min; 4° C.) to obtain a P4 pellet that was subsequently resuspended and assayed. [^3H]WIN35428 binding (0.5 nM final concentration) was conducted in phosphate-buffered 0.32 M sucrose, pH 7.4, with synaptosomes obtained from 2 mg (original wet weight) of striatal tissue per reaction tube, and samples were incubated on ice for 2 hr. Samples were then filtered through Whatman GF/B filters (Brandel, Gaithersburg, Md.) soaked previously in 0.05% polyethylenimine. […]

[6] = molecular target: T3, plasmalemmal DA transporter (DAT); settings: MDMA-treated rats, multiple high-dose, Metzger et al., 1998, cited from earlier work
[7] = molecular target: T2, DAT; assay: In vitro preincubation of striatal synaptosomes with MDMA: [3H]DA uptake and WIN35428 binding; type: biochemical; settings: 30 min, 37° C.
Procedure: as §1

T2 sequence (P23977 whole entry): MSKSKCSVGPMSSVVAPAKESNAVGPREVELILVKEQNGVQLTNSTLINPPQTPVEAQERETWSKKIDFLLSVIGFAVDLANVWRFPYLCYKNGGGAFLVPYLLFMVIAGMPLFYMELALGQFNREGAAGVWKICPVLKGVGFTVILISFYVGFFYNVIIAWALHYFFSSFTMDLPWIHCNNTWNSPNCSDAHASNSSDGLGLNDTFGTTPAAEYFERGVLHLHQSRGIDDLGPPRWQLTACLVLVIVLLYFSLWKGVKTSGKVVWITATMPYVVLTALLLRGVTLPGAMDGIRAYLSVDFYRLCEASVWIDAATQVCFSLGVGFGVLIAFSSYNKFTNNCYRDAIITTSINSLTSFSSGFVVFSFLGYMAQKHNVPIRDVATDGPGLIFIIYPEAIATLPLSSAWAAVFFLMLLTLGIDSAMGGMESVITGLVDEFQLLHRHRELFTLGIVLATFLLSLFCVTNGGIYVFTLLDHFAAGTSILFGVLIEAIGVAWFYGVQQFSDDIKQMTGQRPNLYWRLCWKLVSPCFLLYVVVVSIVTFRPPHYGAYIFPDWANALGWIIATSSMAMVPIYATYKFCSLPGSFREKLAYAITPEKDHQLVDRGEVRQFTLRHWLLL
T3 sequence (P23977 whole entry): as above
T1 sequence (Q01827 whole entry): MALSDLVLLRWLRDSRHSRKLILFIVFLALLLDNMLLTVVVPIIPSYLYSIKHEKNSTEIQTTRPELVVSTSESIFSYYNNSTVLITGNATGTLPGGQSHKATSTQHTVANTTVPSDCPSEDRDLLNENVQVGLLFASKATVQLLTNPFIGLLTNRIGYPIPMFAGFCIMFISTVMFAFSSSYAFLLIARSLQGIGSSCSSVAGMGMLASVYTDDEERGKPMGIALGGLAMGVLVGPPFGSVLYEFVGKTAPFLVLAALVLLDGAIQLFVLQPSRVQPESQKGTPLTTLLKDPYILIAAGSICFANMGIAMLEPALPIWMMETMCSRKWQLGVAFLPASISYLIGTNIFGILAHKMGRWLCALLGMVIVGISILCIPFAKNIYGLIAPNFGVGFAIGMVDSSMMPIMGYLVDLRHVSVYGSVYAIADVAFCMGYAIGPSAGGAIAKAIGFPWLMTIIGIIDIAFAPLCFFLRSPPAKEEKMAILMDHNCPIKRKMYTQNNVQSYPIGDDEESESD
VMAT-2 (Mus musculus, UniProt Q8BRU6), sequence (Q8BRU6 whole entry): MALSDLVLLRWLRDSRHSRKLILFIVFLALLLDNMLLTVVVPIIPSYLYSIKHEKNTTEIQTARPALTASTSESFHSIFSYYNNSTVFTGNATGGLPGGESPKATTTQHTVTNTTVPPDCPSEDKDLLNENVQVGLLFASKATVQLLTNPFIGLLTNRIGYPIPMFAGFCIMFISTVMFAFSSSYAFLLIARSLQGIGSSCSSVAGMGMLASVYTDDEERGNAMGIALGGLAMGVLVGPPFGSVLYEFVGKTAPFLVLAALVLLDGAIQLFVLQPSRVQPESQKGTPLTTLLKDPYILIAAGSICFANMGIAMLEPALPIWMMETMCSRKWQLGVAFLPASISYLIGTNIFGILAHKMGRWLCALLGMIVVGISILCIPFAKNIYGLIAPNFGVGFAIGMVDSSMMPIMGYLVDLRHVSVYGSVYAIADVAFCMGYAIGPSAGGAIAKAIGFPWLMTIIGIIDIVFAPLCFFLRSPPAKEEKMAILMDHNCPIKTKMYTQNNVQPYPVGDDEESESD

SMILES: CNC(C)Cc1ccc2c(c1)OCO2 (stereo not drawn) [MDMA, methylenedioxymethamphetamine]
- deficit in vesicular DA uptake ([1]; 1 h): 25-30%
- vesicular DA uptake 1 h after multiple MDMA administrations ([1]; 1 h): rapidly decreased
- deficit in vesicular DA uptake 24 h after drug treatment ([1]; 24 h): partially recovered
- binding of the VMAT-2 ligand [3H]DHTBZ [2]: reduced
- vesicular dopamine uptake after multiple MDMA administrations ([3]; 1 h): rapidly decreased
- decrease in vesicular dopamine uptake 24 h later ([3]; 24 h): largely reversed
- WIN35428 binding in the body temperature experiment ([4]; 6 or 24° C. ambient, 1 h (data not shown)): not affected
- decrease in WIN35428 binding ([4]; 1 h after treatment): 10% and 18%
- deficit in WIN35428 binding 24 h after drug treatment ([4]; 24 h): persisted
- magnitude of the decrease in plasmalemmal DA uptake ([5]; 2-h intervals, 1 h): 35-55%
- deficit in plasmalemmal DA uptake 24 h after drug treatment ([5]; 24 h): reversed
- Vmax of plasmalemmal DA uptake [6]: 1410 fmol/μg/5 min
- Km ([6]; read-out: transporter Km of plasmalemmal DA uptake): 0.0989 µM
- WIN35428 binding after incubation of synaptosomes with MDMA ([7]; MDMA 10 μM): no effect
- decrease in DA uptake in vitro ([7]; striatal synaptosomes incubated with MDMA 10 μM): 35-55%
